The source of these data is patent US8486991B2, “Enantiomerically pure phosphoindoles as HIV inhibitors” (Idenix Pharmaceuticals, Inc., priority 2006, dated 2013).

The nature of data set [1]: In vitro half-life in liver microsomes, human. It is filed as in vitro ADME. The conditions noted are these: microsomes, up to one hour, longer half-lives are extrapolated, n=1. The method, then:
(§1) In vitro metabolism was assessed using liver microsomes for all species. Compounds were incubated at 1 μM with liver microsomes for up to one hour. Reported half-lives greater than the total incubation time are extrapolated values. Extracts were assayed for disappearance of parent compound by LC-MS/MS detection.
(§2) Data represents one independent experiment conducted.

For another data set, the target named is CYP3A4 (Homo sapiens, UniProt P08684). The data set is described as follows: Recombinant CYP450 inhibition, fluorometric, CYP3A4. It is filed as in vitro ADME. Further details: from tissue; host or cells: pooled human liver microsomes. The method, then:
(§3) Compounds were assayed using recombinant human microsomal proteins with fluorometric substrates. Signal was measured with a Fusion plate reader utilizing the appropriate excitation and emission wavelength set to detect the specific metabolite: […]

Data set [2] can be described thus: In vitro half-life in liver microsomes, monkey. Format: in vitro ADME. The conditions noted are these: microsomes, up to one hour, n=1. As to the method:
as §1, §2
In general terms: Liver microsomes are a subcellular fraction often used to study metabolism.

Data set [3] is described as follows: In vitro half-life in liver microsomes, rat. It is filed as in vitro ADME. The conditions noted are these: microsomes, up to one hour, longer half-lives are extrapolated, n=1. As to the method: as §1, §2
The nature of data set [4]: In vitro half-life in liver microsomes, dog. It is filed as in vitro ADME. The conditions noted are these: microsomes, up to one hour, longer half-lives are extrapolated, n=1. As to the method:
as §1, §2

The subject of data set [5] is CYP3A4 (activation of PXR in DPX2 cells). Kind of data set: CYP3A4 induction screen in DPX2 cells. To be noted: extent compared with rifampicine, mifepristone, androstanol. Format: cell-based, human. From the text: The potential for in vitro induction of CYP3A4 was screened in DPX2 cells. The DPX2 cell line is a derivative of a human hepatocellular carcinoma cell line (HepG2) transformed with the human pregnane x receptor (PXR) and a reporter gene vector containing the enhancer region of CYP3A4. The potential for in vitro induction of CYP1A2 was screened in CYP1A2-DRE cells. The CYP1A2-DRE cell line is a stably transformed HepG2 cells with dioxin response elements (DRE) and reporter gene containing CYP1A2 promoter elements. The extent of CYP3A4 induction was determined by comparing the activation of PXR obtained with test article to that obtained with rifampicine (potent inducer), mifepristone (moderate inducer) and androstanol (weak inducer). The extent of CYP1A2 induction was determined by comparing the activation of the aryl hydrocarbon receptor (AhR) obtained with test article to that obtained with TCDD (potent inducer), omeprazole (moderate inducer), and 2-acetylaminofluorene (weak inducer).

Another data set concerns the target CYP2C9 (Homo sapiens, UniProt P11712). The data set is described as follows: Recombinant CYP450 inhibition, Luciferin-H, CYP2C9. Format: in vitro ADME. Further details: from tissue; host or cells: pooled human liver microsomes. The conditions noted are these: highest concentration tested 10 μM. The method, then: CYP2C9 inhibition was performed by incubating a luminogenic CYP450 substrate Luciferin-H with CYP2C9 and an NADPH regeneration system. Luminescence measured using a Fusion plate reader.

In another data set the target is CYP2D6 (Homo sapiens, UniProt P10635). Kind of data set: Recombinant CYP450 inhibition, fluorometric, CYP2D6. It is filed as in vitro ADME. Further details: from tissue; host or cells: pooled human liver microsomes. To be noted: recombinant enzyme, read-out: percentage of inhibition at the highest concentration tested, CYP2D6. As to the method:
as §3

Chain of CYP3A4 (P08684 whole entry, the tested form may be a part): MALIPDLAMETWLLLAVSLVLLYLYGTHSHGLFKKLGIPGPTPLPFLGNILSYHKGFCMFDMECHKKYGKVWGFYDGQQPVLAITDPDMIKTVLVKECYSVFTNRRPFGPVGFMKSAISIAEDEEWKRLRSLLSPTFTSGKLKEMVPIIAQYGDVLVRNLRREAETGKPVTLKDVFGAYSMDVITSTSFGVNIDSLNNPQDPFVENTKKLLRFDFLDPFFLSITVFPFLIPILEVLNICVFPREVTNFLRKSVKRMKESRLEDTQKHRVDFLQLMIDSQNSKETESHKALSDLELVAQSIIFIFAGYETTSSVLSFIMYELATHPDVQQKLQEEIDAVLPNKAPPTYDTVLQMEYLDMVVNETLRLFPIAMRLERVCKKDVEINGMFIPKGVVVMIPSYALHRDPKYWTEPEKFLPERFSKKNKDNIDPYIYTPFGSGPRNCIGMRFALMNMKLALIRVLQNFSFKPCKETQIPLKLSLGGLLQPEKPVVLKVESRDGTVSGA
Chain of CYP2D6 (P10635 whole entry): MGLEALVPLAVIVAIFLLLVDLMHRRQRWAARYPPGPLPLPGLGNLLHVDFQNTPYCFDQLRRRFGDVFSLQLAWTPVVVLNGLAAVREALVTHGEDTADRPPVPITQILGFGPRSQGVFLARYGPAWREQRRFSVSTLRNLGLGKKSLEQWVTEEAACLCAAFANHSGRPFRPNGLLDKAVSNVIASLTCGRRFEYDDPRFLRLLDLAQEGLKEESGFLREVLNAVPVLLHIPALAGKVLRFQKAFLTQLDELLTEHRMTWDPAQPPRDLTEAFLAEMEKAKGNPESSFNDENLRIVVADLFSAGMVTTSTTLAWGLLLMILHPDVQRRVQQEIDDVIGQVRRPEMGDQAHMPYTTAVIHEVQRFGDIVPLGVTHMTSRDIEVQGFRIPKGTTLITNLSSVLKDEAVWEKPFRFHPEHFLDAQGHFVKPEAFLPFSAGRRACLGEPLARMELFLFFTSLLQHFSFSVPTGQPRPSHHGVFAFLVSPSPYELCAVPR
Chain of CYP2C9 (P11712 whole entry, the tested form may be a part): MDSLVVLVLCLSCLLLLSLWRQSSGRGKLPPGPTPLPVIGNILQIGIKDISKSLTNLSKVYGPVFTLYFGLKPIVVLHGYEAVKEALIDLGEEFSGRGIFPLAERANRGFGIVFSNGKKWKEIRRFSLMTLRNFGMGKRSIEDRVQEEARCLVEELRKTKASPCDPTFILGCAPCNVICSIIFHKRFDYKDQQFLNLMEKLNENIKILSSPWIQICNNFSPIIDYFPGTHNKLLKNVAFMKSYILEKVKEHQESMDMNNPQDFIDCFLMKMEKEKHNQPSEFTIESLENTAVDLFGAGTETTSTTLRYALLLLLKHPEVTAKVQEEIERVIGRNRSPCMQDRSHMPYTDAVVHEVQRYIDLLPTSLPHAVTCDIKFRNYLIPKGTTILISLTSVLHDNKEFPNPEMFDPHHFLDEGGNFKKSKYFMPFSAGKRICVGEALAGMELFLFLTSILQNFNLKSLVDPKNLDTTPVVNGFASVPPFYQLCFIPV

What is called half-life is how long it takes for the measured level to halve. In general, IC50 refers to the concentration that gives 50% inhibition. For `COP(=O)(c1cc(C)cc(/C=C/C#N)c1)c1c(C(N)=O)[nH]c2ccc(Cl)c(F)c12` (racemic) [rac (I + II), 5-chloro-4-fluoro-3-[methyl 3-((E)-2-cyanovinyl)-5-methylphenyl]phosphinoyl-1H-indole-2-carboxamide], the half-life at 1 μM in data set [1] was 1.92 h; in data set [2], 0.307 h; in data set [3] it was 2.43 h; in data set [4], 4.78 h. In addition, the IC50 at CYP3A4 was found to be 1610 nM.
For the compound `COP(=O)(c1cc(C)cc(/C=C/C#N)c1)c1c(C(N)=O)[nH]c2ccc(Cl)cc12` (racemic) [rac (III + IV), 5-chloro-3-[methyl 3-((E)-2-cyanovinyl)-5-methylphenyl]phosphinoyl-1H-indole-2-carboxamide], the half-life at 1 μM in data set [1] was 1.52 h; in data set [2], 0.272 h; in data set [3], 1.75 h; in data set [4], 4.28 h. In addition, the figures for the IC50 at CYP3A4 and at CYP2C9 were 2270 nM and 5990 nM, respectively. Moreover, the “Induction, DPX2 (CYP3A4)” value in data set [5] is recorded as “Moderate (n = 1)”. For the same compound, the inhibition at 10 µM at CYP2D6 fell in the range of 16 to 23%.
